Measured values: US20110183978A1, “Phenylpyri(mi)dinylazoles” (Bayer CropScience AG, priority 2009, published 2011)
Where two headings read alike, the source gives them in different places.

Tests used:
Sphaerotheca fuliginea = experiment: Example L: in vivo test on Sphaerotheca fuliginea (powdery mildew on cucumber/protective); conditions: Podosphaera fuliginea, 168 h, cucumber, protective, assessment 7 days after inoculation, read-out: % Wirkungsgrad
Experimental: (§1) Solvent: 49 parts by weight N,N-dimethylformamide Emulsifier: 1 part by weight alkylaryl polyglycol ethers For the preparation of a suitable active substance preparation, 1 part by weight of active substance is mixed with the stated quantities of solvent and emulsifier and the concentrate is diluted to the desired concentration with water. For the testing for protective activity, young cucumber plants are sprayed with the active substance preparation at the stated application dosage. One day after the treatment, the plants are inoculated with a spore suspension of Sphaerotheca fuliginea. Next, the plants are placed in a greenhouse at 70% relative atmospheric humidity and a temperature of 23° C. 7 days after the inoculation, the assessment takes place.

Alternaria solani = experiment: Example M: in vivo test on Alternaria solani (leaf blotch disease/tomato/protective); conditions: 168 h, tomato, protective, 500 ppm active substance, assessed 7 days after inoculation, read-out: % Wirkungsgrad (activity level)
Experimental: as §1, with “tomato” for “cucumber”, “One day after the treatment, the plants are inoculated with a spore suspension of Sphaerotheca fuliginea. Next, the plants are placed in a greenhouse at 70% relative atmospheric humidity and a temperature of 23° C.” left out

Fusarium graminearum = experiment: microbe, parasite or virus in culture; assay type: cell-based
[1] = LogPA (logP of the stated pure compound or, in a mixture, of the main isomer, 1-substituted 3-aryl-1H-pyrazole)
[2] = 72 h, read-out: % Inhibition des Pilzwachstums bei 50 μM
[3] = 168 h, read-out: % Inhibition der DON/AcDON produktion bei 50 μM

| Compound | pest or weed control at 500 ppm (Sphaerotheca fuliginea) [%] | chromatographic logP (physchem; [1]) | pest or weed control at 500 ppm (Alternaria solani) [%] | chromatographic logP (physchem; LogPA) | inhibition at 50 µM (Fusarium graminearum; [2]) [%] | inhibition at 50 µM (Fusarium graminearum; [3]) [%] |
| --- | --- | --- | --- | --- | --- | --- |
| Cc1cc(-c2cn(C3CCCCO3)nc2-c2ccc(F)cc2)ccn1 (stereo not shown) [Compound 31] | 70 | 1.38 | – | – | – | – |
| CC(C)Cn1cc(-c2ccnc(NC(=O)CC3CC3)c2)c(-c2ccc(F)cc2)n1 [Compound 158] | 97 | 3.03 | 94 | – | – | – |
| CC(C)C(=O)Cn1cc(-c2ccncc2)c(-c2ccc(F)cc2)n1 [Compound 178] | 75 | – | 94 | 1.37 | – | – |
| CC(C)OC(=O)Nc1cc(-c2cn(C(C)C)nc2-c2ccc(F)cc2)ccn1 [Compound 181] | 85 | – | 94 | 2.99 | – | – |
| CC(C)On1cc(-c2ccncc2)c(-c2ccc(F)cc2)n1 [Compound 227] | – | – | 95 | 1.58 | 100 | 100 |
| CC(C)Cn1cc(-c2ccncc2-c2ccc(F)cc2)c(-c2ccc(F)cc2)n1 [Compound 228] | 75 | – | 70 | 2.96 | – | – |
| COCC(=O)Nc1cc(-c2cn(Cc3ccccc3F)nc2-c2ccc(F)cc2)ccn1 [Compound 247] | – | – | 94 | 3.09 | 96 | 99 |
| CC(c1ccccc1F)n1cc(-c2ccnc(NC(=O)CC3CC3)c2)c(-c2ccc(F)cc2)n1 (stereo not shown) [Compound 250] | 84 | – | 94 | 3.54 | – | – |
| O=C(CC1CC1)Nc1cc(-c2cn(Cc3ccccc3F)nc2-c2ccc(F)cc2)ccn1 [Compound 253] | 92 | – | 94 | 3.17 | – | – |
| CC(C)C(=O)Nc1cc(-c2cn(Cc3ccccc3F)nc2-c2ccc(F)cc2)ccn1 [Compound 256] | 92 | – | 94 | 3.03 | – | – |
| CC(C)C(=O)Nc1cc(-c2c(-c3ccc(F)cc3O)nn(C)c2OC(F)F)ccn1 [Compound 257] | – | – | 94 | 2.44 | 0 | 94 |
| O=C(Nc1cc(-c2cn(Cc3ccccc3F)nc2-c2ccc(F)cc2)ccn1)C1CC1 [Compound 262] | – | – | 95 | 2.77 | 35 | 99 |
| CCC(=O)Nc1cc(-c2cn(C(C(=O)OC)C(C)C)nc2-c2ccc(F)cc2)ccn1 (stereo not shown) [Compound 274] | 94 | – | 95 | 2.67 | – | – |
| CC(C)C(=O)Nc1cc(-c2cn(CC3OCCO3)nc2-c2ccc(F)cc2)ccn1 [Compound 276] | 99 | – | 95 | 1.99 | – | – |
| COC(=O)C(C(C)C)n1cc(-c2ccnc(NC(=O)C(C)C)c2)c(-c2ccc(F)cc2)n1 (stereo not shown) [Compound 277] | 94 | – | 100 | 3.05 | – | – |
| CCC(=O)Nc1cc(-c2cn(CC3OCCO3)nc2-c2ccc(F)cc2)ccn1 [Compound 278] | 89 | – | 95 | 1.59 | – | – |
| CC(C)Cn1cc(-c2ccnc(NC3COC3)n2)c(-c2ccc(F)cc2)n1 [Compound 279] | 100 | – | 70 | 2.35 | – | – |
| CC(C)n1cc(-c2ccnc3[nH]cnc23)c(-c2ccc(F)cc2)n1 [Compound 280] | 93 | – | 95 | 1.82 | – | – |
| CC(C)Cn1cc(-c2ccnc(NC3CC3)n2)c(-c2ccc(F)cc2)n1 [Compound 281] | 94 | – | 95 | 2.41 | – | – |

| Compound | pest or weed control at 500 ppm (Sphaerotheca fuliginea) [%] | chromatographic logP (physchem; [1]) | pest or weed control at 500 ppm (Alternaria solani) [%] | chromatographic logP (physchem; LogPA) | inhibition at 50 µM (Fusarium graminearum; [2]) [%] | inhibition at 50 µM (Fusarium graminearum; [3]) [%] |
| --- | --- | --- | --- | --- | --- | --- |
| Cc1cn(-c2cc(-c3cn(C(C)C)nc3-c3ccc(F)cc3)ccn2)cn1 [Compound 283] | 78 | – | 95 | 2.05 | – | – |
| CC(C)Cn1cc(-c2ccnc(NC(C)(C)C)n2)c(-c2ccc(F)cc2)n1 [Compound 284] | 91 | – | 100 | 2.94 | – | – |
| COCC(C)Nc1nccc(-c2cn(CC(C)C)nc2-c2ccc(F)cc2)n1 (stereo not shown) [Compound 285] | 89 | – | 95 | 2.39 | – | – |
| CCC(C)Nc1nccc(-c2cn(CC(C)C)nc2-c2ccc(F)cc2)n1 (stereo not shown) [Compound 286] | 89 | – | 90 | 2.68 | – | – |
| CCn1cc(-c2ccnc(NC(=O)C(C)C)c2)c(-c2ccc(F)cc2)n1 [Compound 290] | 100 | – | 100 | 2.14 | – | – |
| CCn1cc(-c2ccnc(NC(=O)CC3CC3)c2)c(-c2ccc(F)cc2)n1 [Compound 291] | 95 | – | 100 | 2.29 | – | – |
| CCCn1cc(-c2ccnc(NC(=O)CC)c2)c(-c2ccc(F)cc2)n1 [Compound 292] | 95 | – | 100 | 2.15 | – | – |
| CCCn1cc(-c2ccnc(NC(=O)COC)c2)c(-c2ccc(F)cc2)n1 [Compound 293] | 94 | – | 100 | 2.58 | – | – |
| CCCn1cc(-c2ccnc(NC(=O)C(C)C)c2)c(-c2ccc(F)cc2)n1 [Compound 294] | 98 | – | 100 | 2.49 | – | – |
| CCCn1cc(-c2ccnc(NC(=O)CC3CC3)c2)c(-c2ccc(F)cc2)n1 [Compound 295] | 94 | – | 100 | 2.66 | – | – |
| CCC(=O)Nc1cc(-c2cn(C)nc2-c2ccc(F)cc2)ccn1 [Compound 296] | 84 | – | 100 | 1.56 | – | – |
| COCC(=O)Nc1cc(-c2cn(C)nc2-c2ccc(F)cc2)ccn1 [Compound 297] | 90 | – | 100 | 1.89 | – | – |
| CC(C)C(=O)Nc1cc(-c2cn(C)nc2-c2ccc(F)cc2)ccn1 [Compound 298] | 100 | – | 80 | 1.83 | – | – |
| Cn1cc(-c2ccnc(NC(=O)CC3CC3)c2)c(-c2ccc(F)cc2)n1 [Compound 299] | 84 | – | 100 | 1.98 | – | – |
| CCOCCn1cc(-c2ccnc(NC(=O)COC)c2)c(-c2ccc(F)cc2)n1 [Compound 327] | – | – | 95 | 2.38 | 105 | 100 |
| CCn1cc(-c2ccnc(NC(=O)CCCC(=O)OC)c2)c(-c2ccc(F)cc2)n1 [Compound 331] | 94 | – | – | 2.02 | – | – |
| CCn1cc(-c2ccnc(NC(=O)c3snnc3C)c2)c(-c2ccc(F)cc2)n1 [Compound 335] | 74 | – | – | 2.72 | – | – |
| Cn1cc(-c2ccnc(NC(=O)c3ccccc3)c2)c(-c2ccc(F)cc2)n1 [Compound 346] | 95 | – | – | 2.42 | – | – |
